Series [1] can be described thus: Fluorescence emission maximum of the dyes. The series is classed as physicochemical.
The nature of series [2]: Absorbance of the dyes (absorption maximum, extinction coefficient). The class given is physicochemical.

As for `CCOC(=O)C1(C(=O)O)CC(/C=C/C2=[N+](CCCS(=O)(=O)[O-])c3ccc(S(=O)(=O)O)cc3C2(C)C)=CC(=C/C=C2/N(CCCS(=O)(=O)O)c3ccc(S(=O)(=O)O)cc3C2(C)C)/C1` (stereo not drawn) [Compound 1b], the Em in series [1] (1x PBS) is given as 771 nm. In series [2], the “% absorption of the dye at 278 nm with respect to its abs. at λmax, 750 nm” value was found to be 4%. Also, in series [2] (1x PBS), the Abs was 749 nm. In series [2] (1x PBS, in M-1 cm-1 (unit assumed)), the “ε (extinction coefficient of the dye)” value is given as 240,000.
On to `CCOC(=O)C1(C(=O)NCCS(=O)(=O)O)CC(/C=C/C2=[N+](CCCS(=O)(=O)[O-])c3ccc(S(=O)(=O)O)cc3C2(C)C)=CC(=C/C=C2/N(CCCS(=O)(=O)O)c3ccc(S(=O)(=O)O)cc3C2(C)C)/C1` (stereo not drawn) [Compound 1c], for which the Abs. max in series [2] (in water) is 749 nm.
As to `CC1(C)C(/C=C/C2=CC(=C/C=C3/N(CCCS(=O)(=O)O)c4ccc(S(=O)(=O)O)cc4C3(C)C)/CC(C(=O)O)(C(=O)NCCS(=O)(=O)O)C2)=[N+](CCCS(=O)(=O)[O-])c2ccc(S(=O)(=O)O)cc21` (stereo not drawn) [Compound 1d], in series [1] (in water/1× PBS), the “Em. Max” value stood at 771 nm. The compound further returned an Abs. max in series [2] (in water/1× PBS) of 751 nm.
In the same order, the values of `CC1(C)C(/C=C/C2=CC(=C/C=C3/N(CCCS(=O)(=O)O)c4ccc(S(=O)(=O)O)cc4C3(C)C)/CC(C(=O)NCCCCCC(=O)O)(C(=O)NCCS(=O)(=O)O)C2)=[N+](CCCS(=O)(=O)[O-])c2ccc(S(=O)(=O)O)cc21` (stereo not drawn) [Compound 1f] are 771 nm and 751 nm.
Consider `CCN1/C(=C/C=C2C=C(/C=C/C3=[N+](CC)c4ccc5c(S(=O)(=O)[O-])cc(S(=O)(=O)O)cc5c4C3(C)C)CC(C(=O)NCCCCCC(=O)O)(C(=O)NCCS(=O)(=O)O)C/2)C(C)(C)c2c1ccc1c(S(=O)(=O)O)cc(S(=O)(=O)O)cc21` (stereo not drawn) [Compound 4m], for which the “Em. Max” value in series [1] (water) is given as 795 nm. Moreover, the Abs. max is recorded as 780 nm in series [2] (MeOH) and 775 nm in series [2] (in water).

The record behind these values is patent publication US11193932B2, “4,4-disubstituted cyclohexyl bridged heptamethine cyanine dyes and uses thereof” (VisEn Medical, Inc., priority 2013, dated 2021).
